{"source": "the NIST ThermoML archive (doi:10.1016/j.tca.2008.12.007)", "experiment": "xn = mol fraction of the nth substance listed", "settings": "101 kPa, Liquid, Vibrating tube method", "note": "± gives the expanded uncertainty stated by the source."}
{"smiles": "C1CCCNCC1", "note": "[azacycloheptane] + O", "values": [{"measurement": "mass density", "setting": "313.15 K, x2 = 0.3", "result": "882.83 ± 0.21", "unit": "kg/m3"}, {"measurement": "mass density", "setting": "313.15 K, x2 = 0.3499", "result": "886.76 ± 0.2", "unit": "kg/m3"}, {"measurement": "mass density", "setting": "313.15 K, x2 = 0.4", "result": "890.72 ± 0.19", "unit": "kg/m3"}, {"measurement": "mass density", "setting": "313.15 K, x2 = 0.4529", "result": "895.39 ± 0.17", "unit": "kg/m3"}, {"measurement": "mass density", "setting": "313.15 K, x2 = 0.5008", "result": "899.86 ± 0.15", "unit": "kg/m3"}, {"measurement": "mass density", "setting": "313.15 K, x2 = 0.5041", "result": "899.86 ± 0.15", "unit": "kg/m3"}, {"measurement": "mass density", "setting": "313.15 K, x2 = 0.5508", "result": "904.48 ± 0.15", "unit": "kg/m3"}, {"measurement": "mass density", "setting": "313.15 K, x2 = 0.5992", "result": "909.37 ± 0.15", "unit": "kg/m3"}, {"measurement": "mass density", "setting": "313.15 K, x2 = 0.65", "result": "915.05 ± 0.14", "unit": "kg/m3"}, {"measurement": "mass density", "setting": "313.15 K, x2 = 0.699", "result": "920.96 ± 0.13", "unit": "kg/m3"}, {"measurement": "mass density", "setting": "313.15 K, x2 = 0.7496", "result": "927.77 ± 0.13", "unit": "kg/m3"}, {"measurement": "mass density", "setting": "313.15 K, x2 = 0.7994", "result": "935.59 ± 0.14", "unit": "kg/m3"}, {"measurement": "mass density", "setting": "313.15 K, x2 = 0.8398", "result": "942.92 ± 0.15", "unit": "kg/m3"}, {"measurement": "mass density", "setting": "313.15 K, x2 = 0.8799", "result": "951.63 ± 0.17", "unit": "kg/m3"}, {"measurement": "mass density", "setting": "313.15 K, x2 = 0.92", "result": "962.53 ± 0.2", "unit": "kg/m3"}, {"measurement": "mass density", "setting": "313.15 K, x2 = 0.9599", "result": "976.48 ± 0.22", "unit": "kg/m3"}, {"measurement": "mass density", "setting": "313.15 K, x2 = 0.96", "result": "976.54 ± 0.26", "unit": "kg/m3"}, {"measurement": "mass density", "setting": "313.15 K, x2 = 0.9699", "result": "980.66 ± 0.26", "unit": "kg/m3"}, {"measurement": "mass density", "setting": "313.15 K, x2 = 0.98", "result": "985.06 ± 0.26", "unit": "kg/m3"}, {"measurement": "mass density", "setting": "318.15 K, x2 = 0.0199", "result": "860.37 ± 0.29", "unit": "kg/m3"}, {"measurement": "mass density", "setting": "318.15 K, x2 = 0.0395", "result": "861.39 ± 0.29", "unit": "kg/m3"}, {"measurement": "mass density", "setting": "318.15 K, x2 = 0.0821", "result": "863.99 ± 0.27", "unit": "kg/m3"}, {"measurement": "mass density", "setting": "318.15 K, x2 = 0.1198", "result": "866.23 ± 0.26", "unit": "kg/m3"}, {"measurement": "mass density", "setting": "318.15 K, x2 = 0.1594", "result": "868.63 ± 0.25", "unit": "kg/m3"}, {"measurement": "mass density", "setting": "318.15 K, x2 = 0.1994", "result": "871.37 ± 0.24", "unit": "kg/m3"}, {"measurement": "mass density", "setting": "318.15 K, x2 = 0.2498", "result": "874.79 ± 0.22", "unit": "kg/m3"}, {"measurement": "mass density", "setting": "318.15 K, x2 = 0.3", "result": "878.26 ± 0.21", "unit": "kg/m3"}, {"measurement": "mass density", "setting": "318.15 K, x2 = 0.3499", "result": "882.18 ± 0.2", "unit": "kg/m3"}, {"measurement": "mass density", "setting": "318.15 K, x2 = 0.4", "result": "886.14 ± 0.19", "unit": "kg/m3"}, {"measurement": "mass density", "setting": "318.15 K, x2 = 0.4529", "result": "890.8 ± 0.18", "unit": "kg/m3"}, {"measurement": "mass density", "setting": "318.15 K, x2 = 0.5008", "result": "895.29 ± 0.16", "unit": "kg/m3"}, {"measurement": "mass density", "setting": "318.15 K, x2 = 0.5041", "result": "895.28 ± 0.15", "unit": "kg/m3"}, {"measurement": "mass density", "setting": "318.15 K, x2 = 0.5508", "result": "899.93 ± 0.16", "unit": "kg/m3"}, {"measurement": "mass density", "setting": "318.15 K, x2 = 0.5992", "result": "904.85 ± 0.15", "unit": "kg/m3"}, {"measurement": "mass density", "setting": "318.15 K, x2 = 0.65", "result": "910.58 ± 0.14", "unit": "kg/m3"}, {"measurement": "mass density", "setting": "318.15 K, x2 = 0.699", "result": "916.55 ± 0.14", "unit": "kg/m3"}, {"measurement": "mass density", "setting": "318.15 K, x2 = 0.7496", "result": "923.47 ± 0.14", "unit": "kg/m3"}, {"measurement": "mass density", "setting": "318.15 K, x2 = 0.7994", "result": "931.44 ± 0.14", "unit": "kg/m3"}, {"measurement": "mass density", "setting": "318.15 K, x2 = 0.8398", "result": "938.93 ± 0.15", "unit": "kg/m3"}, {"measurement": "mass density", "setting": "318.15 K, x2 = 0.8799", "result": "947.87 ± 0.17", "unit": "kg/m3"}, {"measurement": "mass density", "setting": "318.15 K, x2 = 0.92", "result": "959.11 ± 0.2", "unit": "kg/m3"}, {"measurement": "mass density", "setting": "318.15 K, x2 = 0.9599", "result": "973.55 ± 0.23", "unit": "kg/m3"}, {"measurement": "mass density", "setting": "318.15 K, x2 = 0.96", "result": "973.61 ± 0.27", "unit": "kg/m3"}, {"measurement": "mass density", "setting": "318.15 K, x2 = 0.9699", "result": "977.9 ± 0.27", "unit": "kg/m3"}, {"measurement": "mass density", "setting": "318.15 K, x2 = 0.98", "result": "982.5 ± 0.28", "unit": "kg/m3"}, {"measurement": "mass density", "setting": "323.15 K, x2 = 0.0199", "result": "855.9 ± 0.3", "unit": "kg/m3"}, {"measurement": "mass density", "setting": "323.15 K, x2 = 0.0395", "result": "856.9 ± 0.29", "unit": "kg/m3"}, {"measurement": "mass density", "setting": "323.15 K, x2 = 0.0821", "result": "859.48 ± 0.28", "unit": "kg/m3"}, {"measurement": "mass density", "setting": "323.15 K, x2 = 0.1198", "result": "861.7 ± 0.26", "unit": "kg/m3"}, {"measurement": "mass density", "setting": "323.15 K, x2 = 0.1594", "result": "864.08 ± 0.25", "unit": "kg/m3"}, {"measurement": "mass density", "setting": "323.15 K, x2 = 0.1994", "result": "866.81 ± 0.24", "unit": "kg/m3"}, {"measurement": "mass density", "setting": "323.15 K, x2 = 0.2498", "result": "870.21 ± 0.23", "unit": "kg/m3"}, {"measurement": "mass density", "setting": "323.15 K, x2 = 0.3", "result": "873.67 ± 0.21", "unit": "kg/m3"}, {"measurement": "mass density", "setting": "323.15 K, x2 = 0.3499", "result": "877.58 ± 0.2", "unit": "kg/m3"}, {"measurement": "mass density", "setting": "323.15 K, x2 = 0.4", "result": "881.52 ± 0.19", "unit": "kg/m3"}, {"measurement": "mass density", "setting": "323.15 K, x2 = 0.4529", "result": "886.19 ± 0.18", "unit": "kg/m3"}, {"measurement": "mass density", "setting": "323.15 K, x2 = 0.5008", "result": "890.68 ± 0.16", "unit": "kg/m3"}, {"measurement": "mass density", "setting": "323.15 K, x2 = 0.5041", "result": "890.68 ± 0.16", "unit": "kg/m3"}, {"measurement": "mass density", "setting": "323.15 K, x2 = 0.5508", "result": "895.33 ± 0.16", "unit": "kg/m3"}, {"measurement": "mass density", "setting": "323.15 K, x2 = 0.5992", "result": "900.28 ± 0.15", "unit": "kg/m3"}, {"measurement": "mass density", "setting": "323.15 K, x2 = 0.65", "result": "906.06 ± 0.14", "unit": "kg/m3"}, {"measurement": "mass density", "setting": "323.15 K, x2 = 0.699", "result": "912.1 ± 0.14", "unit": "kg/m3"}, {"measurement": "mass density", "setting": "323.15 K, x2 = 0.7496", "result": "919.11 ± 0.14", "unit": "kg/m3"}, {"measurement": "mass density", "setting": "323.15 K, x2 = 0.7994", "result": "927.23 ± 0.14", "unit": "kg/m3"}, {"measurement": "mass density", "setting": "323.15 K, x2 = 0.8398", "result": "934.88 ± 0.15", "unit": "kg/m3"}, {"measurement": "mass density", "setting": "323.15 K, x2 = 0.8799", "result": "944.03 ± 0.17", "unit": "kg/m3"}, {"measurement": "mass density", "setting": "323.15 K, x2 = 0.92", "result": "955.59 ± 0.21", "unit": "kg/m3"}, {"measurement": "mass density", "setting": "323.15 K, x2 = 0.9599", "result": "970.5 ± 0.24", "unit": "kg/m3"}, {"measurement": "mass density", "setting": "323.15 K, x2 = 0.96", "result": "970.56 ± 0.28", "unit": "kg/m3"}, {"measurement": "mass density", "setting": "323.15 K, x2 = 0.9699", "result": "975.01 ± 0.28", "unit": "kg/m3"}, {"measurement": "mass density", "setting": "323.15 K, x2 = 0.98", "result": "979.8 ± 0.29", "unit": "kg/m3"}, {"measurement": "mass density", "setting": "333.15 K, x2 = 0.0199", "result": "846.92 ± 0.3", "unit": "kg/m3"}, {"measurement": "mass density", "setting": "333.15 K, x2 = 0.0395", "result": "847.9 ± 0.29", "unit": "kg/m3"}, {"measurement": "mass density", "setting": "333.15 K, x2 = 0.0821", "result": "850.41 ± 0.28", "unit": "kg/m3"}, {"measurement": "mass density", "setting": "333.15 K, x2 = 0.1198", "result": "852.59 ± 0.26", "unit": "kg/m3"}, {"measurement": "mass density", "setting": "333.15 K, x2 = 0.1594", "result": "854.93 ± 0.25", "unit": "kg/m3"}, {"measurement": "mass density", "setting": "333.15 K, x2 = 0.1994", "result": "857.62 ± 0.24", "unit": "kg/m3"}, {"measurement": "mass density", "setting": "333.15 K, x2 = 0.2498", "result": "860.98 ± 0.23", "unit": "kg/m3"}, {"measurement": "mass density", "setting": "333.15 K, x2 = 0.3", "result": "864.4 ± 0.21", "unit": "kg/m3"}, {"measurement": "mass density", "setting": "333.15 K, x2 = 0.3499", "result": "868.28 ± 0.2", "unit": "kg/m3"}, {"measurement": "mass density", "setting": "333.15 K, x2 = 0.4", "result": "872.21 ± 0.19", "unit": "kg/m3"}, {"measurement": "mass density", "setting": "333.15 K, x2 = 0.4529", "result": "876.87 ± 0.18", "unit": "kg/m3"}, {"measurement": "mass density", "setting": "333.15 K, x2 = 0.5008", "result": "881.36 ± 0.16", "unit": "kg/m3"}, {"measurement": "mass density", "setting": "333.15 K, x2 = 0.5041", "result": "881.35 ± 0.16", "unit": "kg/m3"}, {"measurement": "mass density", "setting": "333.15 K, x2 = 0.5508", "result": "886.03 ± 0.16", "unit": "kg/m3"}]}
